In the supplement of paper PMC10331698:
± gives the standard deviation of the averaged measurements.

Columns and labels:
Test in all cases: level (log10 ratio to DMSO vehicle control); higher = higher biomarker level / cell amount than vehicle control
Conditions in all cases: in DMSO
[1] = compound: FC(F)(F)C(F)(F)C(F)(F)C(F)(F)C(F)(F)C(F)(F)C(F)(F)CCI [1-Iodo-1H,1H,2H,2H-perfluorononane]
Experimental: (§1)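 BioMAP Diversity Plus panel of 12 human primary cell co-culture systems (3C, 4H, LPS, SAg, BT, BF4T, BE3C, CASM3C, HDF3CGF, KF3CT, MyoF, Mphg). Compounds were added 1 h before stimulation and left for 24 h (MyoF 48 h; BT 72 h for soluble read-outs or 6 d for IgG). Biomarkers were read by ELISA, cytotoxicity by SRB, PBMC viability and proliferation by Alamar Blue. Each well value was divided by the mean of 8 DMSO control wells on the same plate and log10 transformed; duplicate blinded samples were tested at 4 concentrations.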

[2] = compound: O=S(=O)(O)C(F)(F)C(F)(F)C(F)(F)C(F)(F)C(F)(F)C(F)(F)C(F)(F)C(F)(F)F [Potassium perfluorooctanesulfonate]
Experimental: as §1

[3] = compound: C=CC(=O)OCCC(F)(F)C(F)(F)C(F)(F)C(F)(F)F [2-(Perfluorobutyl)ethyl acrylate]
Experimental: as §1

[4] = compound: O=C(O)C(F)(F)C(F)(F)C(F)(F)C(F)(F)C(F)(F)F [Perfluorohexanoic acid]
Experimental: as §1

[5] = compound: O=C(O)C(F)(F)C(F)(F)C(F)(F)C(=O)O [Hexafluoroglutaric acid]
Experimental: as §1

[6] = compound: O=S(=O)(O)C(F)(F)C(F)(F)C(F)(F)C(F)(F)C(F)(F)C(F)(F)C(F)(F)C(F)(F)F [Perfluorooctanesulfonic acid]
Experimental: as §1

[7] = compound: O=C(O)C(F)(F)C(F)(F)C(F)(F)C(F)(F)C(F)(F)C(F)(F)C(F)(F)C(F)(F)C(F)(F)C(F)(F)C(F)(F)C(F)(F)C(F)(F)F [Perfluorotetradecanoic acid]
Experimental: as §1

Test System	level (log10) ([1]; 6700 nM)	level (log10) ([1]; 20000 nM)	level (log10) ([2]; 6700 nM)	level (log10) ([2]; 20000 nM)	level (log10) ([2]; 60000 nM)	level (log10) ([3]; 6700 nM)	level (log10) ([3]; 20000 nM)	level (log10) ([3]; 60000 nM)	level (log10) ([4]; 6700 nM)	level (log10) ([4]; 20000 nM)	level (log10) ([4]; 60000 nM)	level (log10) ([5]; 6700 nM)	level (log10) ([5]; 20000 nM)	level (log10) ([5]; 60000 nM)	level (log10) ([6]; 6700 nM)	level (log10) ([6]; 20000 nM)	level (log10) ([6]; 60000 nM)	level (log10) ([7]; 6700 nM)	level (log10) ([7]; 20000 nM)
LPS:CCL2/MCP-1	-0.008 ± 0.016	0.0145 ± 0.04	0.0025 ± 0.0021	0.007 ± 0.016	0.039 ± 0.0057	-0.0075 ± 0.0035	-0.02 ± 0.0085	-0.0255 ± 0.029	-0.0035 ± 0.00071	-0.008 ± 0.027	-0.0045 ± 0.018	-0.0135 ± 0.026	-0.012 ± 0.011	-0.004 ± 0.013	0.0025 ± 0.00071	0.005 ± 0.021	0.0075 ± 0.005	0.013 ± 0.055	0.0055 ± 0.077
LPS:CD40	-0.0105 ± 0.019	0.034 ± 0.025	-0.062 ± 0.052	-0.055 ± 0.014	-0.062 ± 0.016	-0.0445 ± 0.00071	-0.044 ± 0.035	-0.237 ± 0.035	0.041 ± 0.096	0.038 ± 0.13	0.0215 ± 0.14	0 ± 0.0028	-0.0035 ± 0.035	0.0085 ± 0.046	-0.018	-0.0345 ± 0.022	-0.076 ± 0.073	0.0005 ± 0.12	0 ± 0.11
LPS:CD62E/E-Selectin	-0.003 ± 0.027	-0.0175 ± 0.057	0.0005 ± 0.037	0.0035 ± 0.00071	0.0205 ± 0.00071	0.0345 ± 0.023	0.033 ± 0.0071	0.0015 ± 0.04	-0.01 ± 0.0042	-0.0065 ± 0.012	-0.003 ± 0.0028	-0.003 ± 0.035	0.0045 ± 0.03	0.004 ± 0.033	-0.002 ± 0.0014	-0.0055 ± 0.036	0.019 ± 0.0028	-0.0035 ± 0.011	0.01 ± 0.04
LPS:CD69	-0.0145 ± 0.026	-0.0065 ± 0.063	-0.0315 ± 0.012	-0.046 ± 0.0057	-0.0205 ± 0.039	-0.0225 ± 0.015	-0.017 ± 0.041	-0.049 ± 0.041	0.0025 ± 0.0078	-0.0165 ± 0.0021	-0.0295 ± 0.013	-0.003 ± 0.011	-0.014 ± 0.0099	0.0075 ± 0.0021	-0.018 ± 0.0057	-0.0385 ± 0.0021	-0.025 ± 0.014	-0.012 ± 0.025	-0.027 ± 0.068
LPS:CD106/VCAM-1	0.002 ± 0.011	-0.0155 ± 0.039	0.0025 ± 0.019	-0.004 ± 0.016	-0.0125 ± 0.04	-0.028 ± 0.024	-0.0465 ± 0.0035	-0.141 ± 0.011	-0.0025 ± 0.0035	-0.0055 ± 0.0035	0.008 ± 0.0042	-0.006 ± 0.016	-0.015 ± 0.024	-0.005 ± 0.0071	-0.009 ± 0.0085	-0.017 ± 0.011	-0.023 ± 0.027	-0.036 ± 0.033	-0.0565 ± 0.039
